The record followed here is patent publication US20050147754A1, “Zirconium complex useful in a CVD method and a thin film preparation method using the complex” (Saes Getters S.p.A., priority 2002, published 2005).

Molecules are shown by their SMILES.

This data set in a line: TG-DTA in dry air versus argon gas (oxidative degradation). The settings on record: onset of caloric value difference between dry air and argon gas, dDTA/dT, FIG. 3(b).

`CC(C)C(=O)C=C([O][Zr]([O]C(=CC(=O)C(C)C)C(C)C)([O]C(=CC(=O)C(C)C)C(C)C)[O]C(=CC(=O)C(C)C)C(C)C)C(C)C` [Zr(DIBM)4, zirconium tetrakis[diisobutyrylmethanate]]: the “temperature at which oxidation reaction occurred” value was “about 130 °C”.

On to `CC(C)(C)C(=O)C=C(O)C(C)(C)C.CC(C)(C)C(=O)C=C(O)C(C)(C)C.CC(C)(C)C(=O)C=C(O)C(C)(C)C.CC(C)(C)C(=O)C=C(O)C(C)(C)C.[Zr]` [Zr(DPM)4, zirconium tetrakis[dipivaloylmethanate]], for which the “temperature at which oxidation reaction occurred” value was “about 280 °C”.
